{"source": "PubChem BioAssay (NCI)", "note": "Several values for one entry are separate records, joined by “and”; a condition that tells them apart may be missing. Equal values may be shown once.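 48-hour exposure; five concentrations; linearly interpolated endpoints. Abbreviation: GI50, concentration required for 50% inhibition of growth. The concentration for full growth arrest is given as TGI.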", "data": [{"tested_on": "SF-539 CNS", "test": "NCI tumour cell line growth inhibition, 48 h", "values": [{"molecule": "O=[N+]([O-])c1cc(C=NC23CC4CC(CC(C4)C2)C3)ccc1Cl", "TGI": "55.7 µM"}, {"molecule": "COc1cc(S(=O)(=O)Nc2nc(-c3ccc(N4C(=O)C(CC(=O)O)SC4c4cccs4)cc3)cs2)ccc1Cl", "note": "(centres undefined)", "TGI": "> 100 µM"}, {"molecule": "CC(=O)N(C(=O)CC(=O)N1N=C(c2ccccc2)C(N=Nc2ccccc2[N+](=O)[O-])C1=O)c1ccc(Cl)cc1", "note": "(centres undefined)", "TGI": "> 10 µM"}, {"molecule": "Oc1ccccc1CNCc1nc2ccccc2[nH]1", "TGI": "> 100 µM"}, {"molecule": "COc1ncc(/C=C2\\OC(=O)c3ccccc32)c(OC)n1", "TGI": "> 100 µM"}, {"molecule": "C[C@]12CCC3C4=C(CCC3C1CCC2=O)C(=O)[C@H]1O[C@H]1C4=O", "note": "(some centres undefined)", "TGI": "5.38 µM"}, {"molecule": "CCCCOC(=O)Nc1ccc(S(=O)(=O)Nc2ccccc2Cl)cc1", "TGI": "32.7 µM"}, {"molecule": "Oc1[nH]c2ccccc2c1N=Nc1nc(-c2ccc(Br)cc2)cs1", "TGI": "34.3 µM"}, {"molecule": "C#CCn1c(=O)c2ccccc2n(CC#C)c1=O", "TGI": "> 10 µM"}, {"molecule": "O=C1CCC2(c3ccc(Cl)cc3)Nc3ccncc3N12", "note": "(centres undefined)", "TGI": "> 10 µM"}, {"molecule": "Nc1ncnc2c1[nH]c(=O)n2-c1ccccc1", "TGI": "> 100 µM"}, {"molecule": "[N-]=[N+]=NC(c1ccccc1)(c1ccccc1)c1ccccc1", "TGI": "31 µM"}, {"molecule": "C(=C(c1ccc(OC2CCCCO2)cc1)c1ccc(OC2CCCCO2)cc1)c1ccccc1", "note": "(centres undefined)", "TGI": "3.24 µM"}, {"molecule": "COc1ccc(CN2C(=O)/C(=C\\c3cc(OC)c(OC)c(OC)c3)c3ccccc32)cc1", "GI50": "2.17 µM", "TGI": "4.33 µM"}, {"molecule": "N[C@@H](CCC(=O)NCP(=O)(O)O)C(=O)O", "TGI": "> 100 µM"}, {"molecule": "CCOP(=O)(OCC)C(F)(F)c1ccc(CC(NC(=O)OC(C)(C)C)C(=O)O)cc1", "note": "(centres undefined)", "TGI": "> 10 µM"}, {"molecule": "COc1ccc(-c2[nH]c3c4c(nc5c(c24)C(=O)CC(C)(C)C5)CC(C)(C)C3)cc1", "TGI": "> 100 µM"}, {"molecule": "CCC(=O)NCC1CCCN2CCCCC12", "note": "(centres undefined)", "TGI": "> 100 µM"}, {"molecule": "NC(=O)C(=Cn1c(=S)[nH]c2ccc([N+](=O)[O-])cc21)C(N)=O", "TGI": "> 100 µM"}, {"molecule": "O=C(C1OC1c1ccc(Br)cc1O)C12CC3CC(CC(C3)C1)C2", "note": "(centres undefined)", "TGI": "> 100 µM"}, {"molecule": "Cc1ccc(N(Cc2ccccc2)Cc2ccccc2)cc1", "TGI": "> 100 µM"}, {"molecule": "Nc1nc(-c2ccccc2)nc2oc(-c3cccs3)nc12", "TGI": "> 100 µM"}, {"molecule": "S=C(N/N=C(/c1ccccc1)c1ccccn1)N(Cc1ccccn1)Cc1ccccn1", "TGI": "3.45 µM"}, {"molecule": "Cn1c(=O)c2c(nc3n2CC(C(=O)O)N3)n(C)c1=O", "note": "(centres undefined)", "TGI": "> 100 µM"}, {"molecule": "Cc1ccc(-c2cc(-c3ccco3)c(C#N)c(=S)n2C2OC(CO)C(O)C(O)C2O)cc1", "note": "(centres undefined)", "GI50": "11.5 µM and 37.2 µM", "TGI": "28 µM and > 100 µM"}, {"molecule": "Cc1oc2c(cc(O)c3cc(O)ccc32)c2cccc1-2", "TGI": "> 100 µM"}, {"molecule": "O=C(Cc1ccc(O)c(O)c1)NCc1c[nH]c2ccccc12", "TGI": "> 100 µM"}]}, {"tested_on": "SK-OV-3 ovarian", "test": "NCI tumour cell line growth inhibition, 48 h", "units": {"TGI": "µM", "GI50": "µM"}, "values": [{"molecule": "CCOC(=O)c1c(CN2CCCC2)n(-c2ccccc2)c2cc(Br)c(O)cc12", "TGI": 66.5}, {"molecule": "COc1cccc(Nc2nc(-c3cccs3)nc3cc(OC)c(OC)cc23)c1", "TGI": "> 100"}, {"molecule": "Nn1c(-c2ccccc2)n[nH]c1=O", "TGI": "> 100"}, {"molecule": "O=C1c2cc3c(cc2-c2c1c1ccc(F)cc1c(=O)n2C[C@H](O)[C@@H](O)[C@H](O)CO)OCO3", "GI50": 0.0324, "TGI": 0.22}, {"molecule": "Cc1cc(-c2nc3ccc(F)cc3s2)ccc1NC(=O)[C@H](C)N", "TGI": 28.2}, {"molecule": "C=CC1(CC/C(=C\\[N+](=O)[O-])c2ccc(OC)c(OC)c2)OCC(C)(C)CO1", "TGI": 60.4}, {"molecule": "Cc1cc(Nc2ccc(S(=O)(=O)O)c3cc(S(=O)(=O)O)cc(S(=O)(=O)O)c23)c2ccccc2n1", "TGI": "> 100"}, {"molecule": "Cc1cc(C)nc(NS(=O)(=O)c2ccc(NC(=O)c3ccc4nc5ccccc5c(Nc5ccc(S(N)(=O)=O)cc5)c4c3)cc2)n1", "TGI": "> 100"}, {"molecule": "Nc1c(-c2ccc(Cl)c(Cl)c2)c2ccc([N+](=O)[O-])cc2c(=O)n1-c1nc2ccccc2s1", "TGI": 28.8}, {"molecule": "CC1(C(=O)O)CCC2(C)CCC3(C)C(=CC(=O)C4C5(C)CCC(O)C(C)(C)C5CCC43C)C2C1", "note": "(centres undefined)", "TGI": "> 100"}, {"molecule": "NS(=O)(=O)c1nnc(NC(=O)Nc2ccc(Cl)c(Cl)c2)s1", "TGI": 63.4}, {"molecule": "COC(=O)c1c(C)nc2c1cc(O)c1[nH]c(C)c(C)nc12", "TGI": "> 100"}, {"molecule": "Cn1c2ccc3cc2c(=S)c2cc(ccc21)OCCOCCOCCOCCOCCOCCO3", "TGI": "> 10"}, {"molecule": "O=[N+]([O-])c1cc(C=NC23CC4CC(CC(C4)C2)C3)ccc1Cl", "TGI": "> 100"}, {"molecule": "COc1cc(S(=O)(=O)Nc2nc(-c3ccc(N4C(=O)C(CC(=O)O)SC4c4cccs4)cc3)cs2)ccc1Cl", "note": "(centres undefined)", "TGI": "> 100"}, {"molecule": "CC(=O)N(C(=O)CC(=O)N1N=C(c2ccccc2)C(N=Nc2ccccc2[N+](=O)[O-])C1=O)c1ccc(Cl)cc1", "note": "(centres undefined)", "TGI": "> 10"}, {"molecule": "CC(=O)Nn1c(=S)[nH]c2ccccc21", "TGI": "> 100"}, {"molecule": "C[C@]12CCC3C4=C(CCC3C1CCC2=O)C(=O)[C@H]1O[C@H]1C4=O", "note": "(some centres undefined)", "TGI": 28}, {"molecule": "CCCCOC(=O)Nc1ccc(S(=O)(=O)Nc2ccccc2Cl)cc1", "TGI": 33.8}]}]}
